Reference: patent EP0570920A1, “Probe for cannabinoid receptors” (YISSUM RESEARCH AND DEVELOPMENT COMPANY OF THE HEBREW …, priority 1992, dated 1993)
pKd, pKi: −log10 of the molar value. Read-outs that look alike come from different tables or passages of the source.

Assays:
[1] = in vivo; cited from earlier work
[2] = Solubility of drug in BSA vehicle for binding assay; settings: at concentrations above 5 uM in 5 mg/ml BSA
cannabinoid receptor [3] = target: T1, cannabinoid receptor (Rattus norvegicus, UniProt P20272); experiment: Ligand binding assay with [³H]7, centrifugation assay on synaptosomal membrane preparation
T1 construct: a synaptosomal membrane preparation derived from rat whole brain, without brainstem; from tissue; host or cells: rat whole brain without brainstem, synaptosomal membranes

[4] = cited from earlier work
[5] = Discrimination tests / in vivo experiment comparing (3), (7) and Δ¹-THC
[6] = cited from earlier work; remark: listed apart in the source
[7] = pigeons; cited from earlier work
cannabinoid receptor [8] = target: T1, cannabinoid receptor; settings: cited from earlier work

T1 sequence (P20272 whole entry): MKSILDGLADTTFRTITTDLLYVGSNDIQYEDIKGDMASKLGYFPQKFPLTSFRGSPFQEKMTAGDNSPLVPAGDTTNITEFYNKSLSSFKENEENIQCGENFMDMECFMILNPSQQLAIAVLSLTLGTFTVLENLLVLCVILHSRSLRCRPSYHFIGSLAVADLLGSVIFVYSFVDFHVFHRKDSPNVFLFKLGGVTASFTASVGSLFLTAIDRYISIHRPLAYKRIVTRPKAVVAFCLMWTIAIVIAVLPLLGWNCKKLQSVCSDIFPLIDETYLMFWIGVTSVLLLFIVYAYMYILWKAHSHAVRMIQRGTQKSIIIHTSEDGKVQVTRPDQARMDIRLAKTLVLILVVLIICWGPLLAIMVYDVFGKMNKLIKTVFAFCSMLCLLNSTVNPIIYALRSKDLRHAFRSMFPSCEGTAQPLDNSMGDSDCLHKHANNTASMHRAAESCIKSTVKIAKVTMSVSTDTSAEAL

## CCCCCc1cc(O)c2c(c1)OC(C)(C)C1CCC(C)CC21 (stereo not drawn) [Compound 5a]
[1]
  cannabimimetic activity relative to axial epimer (6a): more active

## CCCCCc1cc(O)c2c(c1)OC(C)(C)[C@@H]1CCC(C)=C[C@@H]21 [Δ¹-THC, Δ-tetrahydrocannabonol]
[2]
  solubility in vehicle: partial insolubility

## CCCCCCC(C)(C)c1cc(O)c2c(c1)OC(C)(C)[C@H]1CC=C(CO)C[C@H]21 [Compound 4]
Cannabinoid receptor [3]
  pKi: 6.33
Cannabinoid receptor [3]; displacement of [³H]7
  fold less potent than its enantiomer compound 3 (HU-210) in binding: 2500 fold
[4]; in vivo
  potency relative to (3) in in vivo pharmacological tests: several thousand times less potent

## CCCCCCC(C)(C)c1cc(O)c2c(c1)OC(C)(C)C1CCC(CO)CC21 (stereo not drawn) [Compound 7, 7-hydroxy-hexahydrocannabinol-5'-dimethyl heptyl homologue]
Cannabinoid receptor [3]
  times more potent than (3) in the binding experiments: about 4 times
  times more potent than Δ¹-THC on binding: about 1000 times
Cannabinoid receptor [3]; Fig. 1
  binding potency compared with CP-55940: more potent than CP-55940
Cannabinoid receptor [3]; homologous displacement experiments with [³H]7
  binding capacity: 4.41 ± 0.08 pmol/mg protein
Cannabinoid receptor [3]; homologous displacement studies, [³H]7, rat whole brain synaptosomal membranes
  pKd: 10.35
[5]
  activity in the discrimination tests, (3) versus (7): essentially equivalent in activity
  times more potent than Δ¹-THC in the in vivo experiment: 125 times

## 7-hydroxyhexahydrocannabinols [Compound 5b]
[6]; depending on the animal used (pigeon or rat) and on the timing of measurement
  times more active than Δ¹-THC in discrimination tests: 3-17 times
[6]; rat, in vivo
  activity in discrimination tests relative to axial epimer (6b): considerably more active

## CCCCCCC(C)(C)c1cc(O)c2c(c1)OC(C)(C)[C@@H]1CC=C(CO)C[C@@H]21 [Compound 3]
Cannabinoid receptor [3]
  pKi: 9.73
[7]
  times more potent than Δ¹-THC in drug discrimination: 80 times
Cannabinoid receptor [8]
  potency ratio of 3 to 4 for binding to the cannabinoid receptor: circa 1500
Cannabinoid receptor [8]; membranes from rat brain
  competition for the specific binding of [³H]1: completes fully
Cannabinoid receptor [8]; read-out: K, heterologous displacement of [³H]1, membranes from rat brain
  pKi: 9.63
[5]
  activity in the discrimination tests, (3) versus (7): essentially equivalent in activity
[4]; various animal species
  times more potent than Δ¹-THC in pharmacological tests: 100-800 times
